Source: publication PMC10385865, “Synthesis and Anticancer Activity of Novel Dual Inhibitors of Human Protein Kinases CK2 and PIM-1” (Pharmaceutics, 2023)
Like-named read-outs stand apart in the source and are kept apart here.

Columns and labels:
[1] = test system: K-562 cells; test: Acridine orange staining, microscopy and fluorescence intensity assay (autophagy); assay type: cell-based, human; conditions: for induction of autophagy (in words): BCR-ABL-positive CML cell line K-562, 48 h; for red fluorescence (red-stained lysosomes), AO, % of the control: K-562, 48 h, 4 at both concentrations, rac-6 at 15 µM, not statistically significant
Protocol: K-562 cells were seeded in 6-well plates at 2.5 × 10^5/mL and subjected to the tested compounds. After 48 h of incubation, cells were centrifugated at 200× g at 4 °C for 5 min, subsequently suspended in PBS containing 2 µg/mL AO and Hoechst 33342, and incubated at 37 °C for 20 min in the dark. Subsequently, cells were centrifugated at 200× g at 4 °C for 5 min. Then, 5 µL of the sample was mounted on a glass slide and covered with a coverslip and examined under a Nikon ECLIPSE Y-TV55 fluorescent microscope.
K-562 cells were seeded in 6-well plates at 2.5 × 10^5/mL and subjected to the tested compounds. After 48 h of incubation, cells were centrifugated at 200× g at 4 °C for 5 min, subsequently suspended in PBS containing 2 µg/mL AO and Hoechst 33342, and incubated at 37 °C for 20 min in the dark. Subsequently, cells were centrifugated at 200× g at 4 °C for 5 min, and 150 µL of the sample was measured on dark plates (Sarstedt). The fluorescence intensity of AO at Ex. 502 nm/Em. 520–524 nm (aggregated or DNA complexed form), Ex. 457 nm/Em. 630–644 nm (aggregated or RNA complexed form), Ex. 540 nm/Em. 640–660 nm (red-stained lysosomes), and Ex. 488 nm/Em. 540–550 nm (yellowish stained lysosomes) and that of Hoechst (nuclei, Ex. 361 nm/Em. 497 nm) in K-562 cells was measured with a Synergy H4 Hybrid Multi-Mode Microplate Reader (BioTek Instruments, Inc., Winooski, VT, USA). The data were normalized to the intensity of Hoechst (nuclei, Ex. 361 nm/Em. 497 nm) in comparison to control cells serving as the reference point, showing 100%.
In order to conclude the mechanism of death of K-562 cells treated with the tested active agents, microscopic observations and a fluorescence intensity assay were performed after staining the cells with an acridine orange (AO). The employed dye is a cell-permeable fluorophore that can be protonated and trapped in acidic vesicular organelles (AVOs). Its metachromatic shift to red fluorescence is concentration-dependent, and therefore, acridine orange fluoresces red in AVOs, such as autolysosomes, can be detected quantitatively. In addition, OA has the ability to intercalate between the nitrogenous bases of the nucleic acids present in cells and their labeling. DNA or RNA is digested during the autophagy process, and the resulting damage makes it easier to bind with OA molecules.
After 48 h of treatment with 4 and rac-6, K-562 cells, were subjected to staining with Hoechst (nuclei staining) and AO, followed by fluorescent microscopy and a fluorescence intensity measurement. […] Since the obtained microscopic data were inconclusive, we additionally measured fluorescence intensity of AO at four different wavelengths, i.e., Ex. 502 nm/Em. 520–524 nm (aggregated or DNA complexed form), Ex. 457 nm/Em. 630–644 nm (aggregated or RNA complexed form), Ex. 540 nm/Em. 640–660 nm (red-stained lysosomes), and Ex. 488 nm/Em. 540–550 nm (yellowish stained lysosomes) (Figure 6b).

[2] = test system: Vero cells; test: MTT-based viability assay, non-cancerous Vero cells; assay type: cell-based, Cercopithecus aethiops; conditions: Chlorocebus sabaeus, 48 h, read-out: IC50 Vero
Protocol: (§1) After incubation with the tested compounds, an MTT test was performed as described previously. Optical densities were measured at 570 nm using a BioTek microplate reader (BioTek Instruments, Inc., Winooski, VT, USA). All measurements were carried out in a minimum of three biological replicates.
(§2) . The IC50 values describing the half-maximal effective concentration of each tested compound were calculated and are summarized in Table 2. […].

[3] = test system: MCF-7 (breast carcinoma); test: MTT-based viability assay, MCF-7; assay type: cell-based, human; conditions: for IC50: Homo sapiens, read-out: IC50 MCF-7
Protocol: as §1, §2

[4] = molecular target: T1, PIM-1 (Homo sapiens, UniProt P11309); test: P81 filter isotopic (radiometric) kinase assay, PIM-1; assay type: biochemical; conditions: substrate peptide […], Ki from IC50 by Cheng–Prusoff
T1 construct: made in house
T1 sequence (P11309 whole entry): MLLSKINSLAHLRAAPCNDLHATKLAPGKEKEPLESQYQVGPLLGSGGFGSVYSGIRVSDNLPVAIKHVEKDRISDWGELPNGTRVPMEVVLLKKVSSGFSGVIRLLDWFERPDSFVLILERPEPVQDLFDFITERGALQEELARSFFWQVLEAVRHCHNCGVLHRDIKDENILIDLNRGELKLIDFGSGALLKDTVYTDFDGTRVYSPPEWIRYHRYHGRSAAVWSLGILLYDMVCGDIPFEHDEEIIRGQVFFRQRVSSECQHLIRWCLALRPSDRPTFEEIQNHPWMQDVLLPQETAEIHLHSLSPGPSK
Protocol: (§3) The obtained compounds were tested for their inhibitory activity toward human CK2α, human CK2 holoenzyme, and PIM-1 using a P81 filter isotopic assay as described previously. […] The experimental data were fitted to the sigmoidal dose–response equation, i.e., (variable slope) Y = Bottom + (Top-Bottom)/(1 + 10^((LogIC50−X)∗HillSlope), in GraphPad Prism (Prism 9, v. 9.0.1).
(§4) Inhibition of the human CK2 catalytic subunit (CK2α), CK2 holoenzyme (CK2α2β2), and PIM-1 by the newly obtained compounds was evaluated using a radiometric assay (Table 1, Figure S2). The synthetic peptide […] was used as the substrate of CK2, and peptide […] was used as the substrate of PIM-1. The values of the inhibition constant (Ki) were calculated using the Cheng–Prusoff equation: Ki = IC50/(1 + [S]/Km).

[5] = molecular target: T2, human CK2 holoenzyme (CK2α2β2) (Homo sapiens, UniProt P68400); test: P81 filter isotopic (radiometric) kinase assay, CK2 holoenzyme; assay type: biochemical; conditions: substrate peptide […], Ki from IC50 by Cheng–Prusoff
T2 construct: made in house
T2 sequence (P68400 whole entry): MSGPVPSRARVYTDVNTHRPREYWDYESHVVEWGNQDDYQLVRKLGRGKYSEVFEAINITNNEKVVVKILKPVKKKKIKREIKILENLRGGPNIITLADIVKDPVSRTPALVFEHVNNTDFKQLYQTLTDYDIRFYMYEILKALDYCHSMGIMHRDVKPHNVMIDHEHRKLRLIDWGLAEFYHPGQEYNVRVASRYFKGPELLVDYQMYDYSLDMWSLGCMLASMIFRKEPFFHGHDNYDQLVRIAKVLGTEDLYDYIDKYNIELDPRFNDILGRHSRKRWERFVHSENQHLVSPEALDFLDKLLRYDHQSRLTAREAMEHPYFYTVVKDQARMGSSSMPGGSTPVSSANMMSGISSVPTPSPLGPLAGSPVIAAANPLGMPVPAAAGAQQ
T2 sequence (P67870 whole entry partner): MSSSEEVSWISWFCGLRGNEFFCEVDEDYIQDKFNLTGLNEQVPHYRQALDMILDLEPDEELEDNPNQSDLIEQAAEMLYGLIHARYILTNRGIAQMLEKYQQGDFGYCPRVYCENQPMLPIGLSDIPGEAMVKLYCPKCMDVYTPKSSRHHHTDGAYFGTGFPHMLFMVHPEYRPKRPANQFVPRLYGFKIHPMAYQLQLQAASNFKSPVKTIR
Protocol: as §3, §4

[6] = molecular target: T3, human CK2α (Homo sapiens, UniProt P68400); test: P81 filter isotopic (radiometric) kinase assay, CK2 catalytic subunit; assay type: biochemical; conditions: substrate peptide […], Ki from IC50 by Cheng–Prusoff
T3 construct: made in house
T3 sequence (P68400 whole entry): as the sequence (P68400 whole entry) above
Protocol: as §3, §4

Ki [5] | IC50 ([3]; MCF7, MTT, 48 h) | Ki [6] | Compound | induction of autophagy (in words) [1] | red fluorescence (red-stained lysosomes), AO, % of the control [1] | IC50 [2] | IC50 ([3]; MCF7, 48 h) | Ki [4] | red fluorescence (in words) ([1]; K-562, 10 µM, 48 h) | yellowish-stained lysosomes, AO fluorescence, % of the control ([1]; K-562, 15 µM, 48 h, Ex. 488 nm/Em. 540–550 nm, normalized to Hoechst) | IC50 ([2]; MTT) | SI (selectivity index) MCF-7 ([3]; IC50 Vero/IC50 cancer cells)
– | – | – | CN(C)c1nc2c(Br)c(Br)c(Br)c(Br)c2[nH]1 [Compound 4, 4,5,6,7-Tetrabromo-N,N-dimethyl-1H-benzimidazol-2-amine, reference compound] | able to induce autophagy | up to 148 % of the control | 18.7 ± 0.33 µM | 14.7 ± 0.27 µM | 0.052 µM | – | – | – | –
0.112 µM | 9.66 ± 0.31 µM | 0.294 µM | OC(CNc1nc2c(Br)c(Br)c(Br)c(Br)c2[nH]1)C(F)(F)F (racemic) [rac-6, 1,1,1-Trifluoro-3-[(4,5,6,7-tetrabromo-1H-benzimidazol-2-yl)amino]propan-2-ol] | able to induce autophagy | up to 148 % of the control | – | – | 0.067 µM | reduced | 324 % of the control | 20.4 ± 0.41 µM | 2.11
